{"source": "patent US20240415123A1", "about": "“METHODS AND COMPOSITIONS FOR ICAFOLIN HERBICIDE TOLERANCE” (Monsanto Technology LLC, priority 2023, published 2024)", "type_in_all_cases": "in vivo", "key": {"[1]": {"system": "Soy transgenic plants expressing CYP15", "test": "Field trial icafolin injury rating, CYP15 soybean", "settings": "for Percent Plant Injury (21 DAT): averaged across repetitions, field locations and events", "procedure": "(§1) Soy transgenic plants expressing CYP14 or CYP15 were assayed in small scale field trails across nine sites in the United States for tolerance to icafolin spray applications. The plants were grown in field plots and sprayed during the early vegetative stages when plants were roughly at the V3 stage. The icafolin formulation was sprayed at either a 5 g ai/ha or 25 g ai/ha application rate with 2 treatment replications per location. The plants were rated for herbicide injury at 7, 14, 21, and 28 days after treatment (DAT). A total of 12 events for CYP14 and 11 events for CYP15 were tested. An event transformed with a non-herbicide tolerance construct served as a negative control to provide a comparison for injury."}, "[2]": {"system": "control (wild-type) soybean plants", "test": "Icafolin herbicide injury rating, greenhouse spray, control soybean", "settings": "for Percent Injury 13 DAT / Percent Injury 14 DAT / Percent Injury 15 DAT / Percent injury 21 DAT: Control", "procedure": "(§2) Herbicide tolerance screens were performed by selecting R1 plants at roughly the V2-V3 developmental stage and applying icafolin herbicide with a track sprayer under standard greenhouse conditions. Two independent transgenic events per transgene were screened. The herbicide was formulated with 1% v/v methylated seed oil (MSO) and 2.5% v/v ammonium sulfate (AMS) and sprayed with a XR nozzle at 15 gallons per […] (GPA) to mimic field conditions. The icafolin used in this Example and in the experiments described in Examples 2-4 was a mixture of the methyl ester forms of the 2R, 4R and 2S, 4S isomers. The icafolin formulation was sprayed at two rates: 5 g active ingredient (ai)/hectare (ha) and 25 g ai/ha. The herbicide treated soybean plants were returned to the greenhouse following spray application and allowed to grow under standard conditions. Plants were rated for herbicide injury at approximately 14 and 21 days after treatment (DAT). Untreated transgenic plants and control (wild-type) plants were used for phenotypic comparison. The herbicide injury rating accounts for plant malformation, stunting, chlorosis, necrosis, and plant death relative to the untreated control plants. An injury rating of approximately 90% or above indicates nearly complete plant death. An injury rating of less than 30% indicates partial tolerance, and an injury rating of less than 20% indicates good tolerance. Injury ratings were collected and analyzed, and photographs of representative plants were taken.\n(§3) Herbicide tolerance screening was performed by selecting R1 plants at roughly the V2-V3 developmental stage and applying the icafolin herbicide in a track sprayer under standard greenhouse conditions. Two independent transgenic events per transgene were selected for screening. The herbicide was formulated with 1% v/v methylated seed oil (MSO) and 2.5% v/v ammonium sulfate (AMS) and sprayed with a XR nozzle at 15 gallons per […] (GPA) to mimic field conditions. The icafolin formulation was sprayed at two rates: 5 g active ingredient (ai)/hectare (ha) and 25 g ai/ha. The treated soybean plants were returned to the greenhouse following spray application and allowed to grow under standard conditions. The plants were rated for herbicide injury at approximately 14 and 21 days after treatment (DAT). Untreated transgenic plants and control (wild-type) plants were used for phenotypic comparison. The herbicide injury rating accounts for plant malformation, stunting, chlorosis, necrosis, and plant death relative to the untreated control plants. An injury rating of approximately 90% or above indicates nearly complete plant death. An injury rating of less than 30% indicates partial tolerance and an injury rating of less than 20% indicates good tolerance. Injury ratings were collected and analyzed, and photographs of representative plants were taken.\nas §3, with “13” for “14”, “An injury rating of approximately 90% or above indicates nearly complete plant death. An injury rating of less than 30% indicates partial tolerance and an injury rating of less than 20% indicates good tolerance. Injury ratings were collected and analyzed, and photographs of representative plants were taken.” left out"}, "[3]": {"system": "transgenic soybean plants expressing CYP12_var", "test": "Icafolin herbicide injury rating, greenhouse spray, CYP12_var soybean", "settings": "for Percent Injury 15 DAT / Percent injury 21 DAT: Experiment 1", "text": "The codon-optimized polynucleotide sequences were placed into plant transformation cassettes with each CYP coding sequence operably-linked to a constitutive expression element comprising the promoter, leader, and intron sequence of Arabidopsis thaliana Ubiquitin 3 (SEQ ID NO:14) and a Medicago truncatula photosystem II terminator (SEQ ID NO:15). Four plant transformation vectors were created, each comprising one of the CYP gene expression cassettes and an aadA selectable marker expression cassette, conferring resistance to the antibiotics spectinomycin and streptomycin. Soybean cultivar AG3555 seed-derived embryo explants were transformed with the vectors by Agrobacterium-mediated transformation using known methods in the art, and transformed plantlets were selected based on growth in the presence of spectinomycin. Plantlets comprising single copy events were grown in the greenhouse to produce R1 seeds. R1 plants were subsequently selected for homozygous CYP-positive plants, either by molecular analysis of young leaf tissue or by seed chipping prior to planting. These selected plants were then screened for tolerance to icafolin herbicide.\nas §2"}, "[4]": {"system": "soybean event transformed with a non-herbicide tolerance construct (negative control)", "test": "Field trial icafolin injury rating, negative control soybean", "settings": "averaged across repetitions and field locations", "procedure": "as §1"}, "[5]": {"settings": "5 g ai/ha icafolin, Experiment 1"}, "[6]": {"settings": "25 g ai/ha icafolin, Experiment 1"}, "[7]": {"settings": "CYP12_var Event 909, 5 g ai/ha icafolin"}, "[8]": {"settings": "CYP12_var Event 909, 25 g ai/ha icafolin"}, "[9]": {"settings": "CYP12_var Event 932, 5 g ai/ha icafolin"}, "[10]": {"settings": "CYP12_var Event 932, 25 g ai/ha icafolin"}}}
{"smiles": "C=C[C@]1(C(=O)N[C@H]2CO[C@@H](C(=O)OC)C2)CC(c2cc(F)cc(F)c2)=NO1", "note": "(relative stereo) [icafolin, methyl(2R*,4R*)-4-[[(5S)-3-(3,5-difluorophenyl)-5-vinyl-4H-isoxazole-5-carbonyl]amino]tetrahydrofuran-2-carboxylate]", "values": [{"measurement": "Percent Plant Injury (21 DAT)", "setting": "[1]; 5 g ai/ha icafolin", "result": 8.7, "unit": "%"}, {"measurement": "injury ratings", "setting": "[1]; 5 g ai/ha, 21 DAT", "result": "below 15%"}, {"measurement": "Tolerance to icafolin", "setting": "[1]; 25 g ai/ha", "result": "Incomplete tolerance"}, {"measurement": "Percent Plant Injury (21 DAT)", "setting": "[1]; 25 g ai/ha icafolin", "result": 31.9, "unit": "%"}, {"measurement": "Percent Injury 13 DAT", "setting": "[2]; 5 g ai/ha icafolin, 13 DAT, Table 10 (Example 4)", "result": 42.5, "unit": "%"}, {"measurement": "Percent Injury 14 DAT", "setting": "[2]; 5 g ai/ha icafolin, 14 DAT, Experiment 2", "result": 61, "unit": "%"}, {"measurement": "Percent Injury 14 DAT", "setting": "[2]; 5 g ai/ha icafolin, 14 DAT, Table 8 (Example 3)", "result": 45.0, "unit": "%"}, {"measurement": "Percent Injury 15 DAT", "setting": "[2]; [5]", "result": 42, "unit": "%"}, {"measurement": "Percent injury 21 DAT", "setting": "[2]; [5]", "result": 50, "unit": "%"}, {"measurement": "Percent injury 21 DAT", "setting": "[2]; 5 g ai/ha icafolin, Experiment 2", "result": 49, "unit": "%"}, {"measurement": "Percent injury 21 DAT", "setting": "[2]; 5 g ai/ha icafolin, Table 8 (Example 3)", "result": 35.6, "unit": "%"}, {"measurement": "Percent injury 21 DAT", "setting": "[2]; 5 g ai/ha icafolin, Table 10 (Example 4)", "result": 35.0, "unit": "%"}, {"measurement": "Percent Injury 13 DAT", "setting": "[2]; 25 g ai/ha icafolin, 13 DAT, Table 10 (Example 4)", "result": 70.0, "unit": "%"}, {"measurement": "Percent Injury 14 DAT", "setting": "[2]; 25 g ai/ha icafolin, 14 DAT, Experiment 2", "result": 90, "unit": "%"}, {"measurement": "Percent Injury 14 DAT", "setting": "[2]; 25 g ai/ha icafolin, 14 DAT, Table 8 (Example 3)", "result": 78.1, "unit": "%"}, {"measurement": "Percent Injury 15 DAT", "setting": "[2]; [6]", "result": 75, "unit": "%"}, {"measurement": "Percent injury 21 DAT", "setting": "[2]; [6]", "result": 81, "unit": "%"}, {"measurement": "Percent injury 21 DAT", "setting": "[2]; 25 g ai/ha icafolin, Experiment 2", "result": 91, "unit": "%"}, {"measurement": "Percent injury 21 DAT", "setting": "[2]; 25 g ai/ha icafolin, Table 8 (Example 3)", "result": 83.1, "unit": "%"}, {"measurement": "Percent injury 21 DAT", "setting": "[2]; 25 g ai/ha icafolin, Table 10 (Example 4)", "result": 79.4, "unit": "%"}, {"measurement": "injury", "setting": "[2]; control, 25 g ai/ha, 13 DAT, Example 4", "result": "about 70%"}, {"measurement": "injury", "setting": "[2]; control, 25 g ai/ha, 14 DAT, Example 3", "result": "about 78%"}, {"measurement": "injury", "setting": "[2]; treated control (wild-type), 5 g ai/ha, Example 1", "result": "around 50%"}, {"measurement": "Injury in words", "setting": "[2]; treated control (wild-type), 5 g ai/ha, Experiment 1", "result": "heavily injured"}, {"measurement": "Injury in words", "setting": "[2]; treated control (wild-type), 25 g ai/ha, Experiment 1", "result": "nearly completely killed"}, {"measurement": "injury", "setting": "[2]; treated control, 5 g ai/ha, 13 DAT, Example 4", "result": "around 42%"}, {"measurement": "injury", "setting": "[2]; treated control, 5 g ai/ha, 14 DAT, Example 3", "result": "around 45%"}, {"measurement": "injury", "setting": "[2]; treated controls, 25 g ai/ha, Example 1", "result": "around 90%"}, {"measurement": "Percent Injury 15 DAT", "setting": "[3]; [7]", "result": 39, "unit": "%"}, {"measurement": "Percent injury 21 DAT", "setting": "[3]; [7]", "result": 50, "unit": "%"}, {"measurement": "Percent Injury 15 DAT", "setting": "[3]; [8]", "result": 57, "unit": "%"}, {"measurement": "Percent injury 21 DAT", "setting": "[3]; [8]", "result": 77, "unit": "%"}, {"measurement": "Percent Injury 15 DAT", "setting": "[3]; [9]", "result": 42, "unit": "%"}, {"measurement": "Percent injury 21 DAT", "setting": "[3]; [9]", "result": 47, "unit": "%"}, {"measurement": "Percent Injury 15 DAT", "setting": "[3]; [10]", "result": 69, "unit": "%"}, {"measurement": "Percent injury 21 DAT", "setting": "[3]; [10]", "result": 80, "unit": "%"}, {"measurement": "Tolerance to icafolin", "setting": "[3]; in vivo", "result": "did not show any noticeable tolerance"}, {"measurement": "Percent Plant Injury (21 DAT)", "setting": "[4]; 5 g ai/ha icafolin", "result": 18.9, "unit": "%"}, {"measurement": "Percent Plant Injury (21 DAT)", "setting": "[4]; 25 g ai/ha icafolin", "result": 62.8, "unit": "%"}]}
